A word on the IC50: it is the midpoint of a concentration-inhibition curve.

For one series, the target named is jack bean urease (EC 3.5.1.5) (Canavalia ensiformis, UniProt P07374). Description: Urease inhibition method. In kind it is biochemical.
jack bean urease (EC 3.5.1.5), sequence (P07374 whole entry, looked up): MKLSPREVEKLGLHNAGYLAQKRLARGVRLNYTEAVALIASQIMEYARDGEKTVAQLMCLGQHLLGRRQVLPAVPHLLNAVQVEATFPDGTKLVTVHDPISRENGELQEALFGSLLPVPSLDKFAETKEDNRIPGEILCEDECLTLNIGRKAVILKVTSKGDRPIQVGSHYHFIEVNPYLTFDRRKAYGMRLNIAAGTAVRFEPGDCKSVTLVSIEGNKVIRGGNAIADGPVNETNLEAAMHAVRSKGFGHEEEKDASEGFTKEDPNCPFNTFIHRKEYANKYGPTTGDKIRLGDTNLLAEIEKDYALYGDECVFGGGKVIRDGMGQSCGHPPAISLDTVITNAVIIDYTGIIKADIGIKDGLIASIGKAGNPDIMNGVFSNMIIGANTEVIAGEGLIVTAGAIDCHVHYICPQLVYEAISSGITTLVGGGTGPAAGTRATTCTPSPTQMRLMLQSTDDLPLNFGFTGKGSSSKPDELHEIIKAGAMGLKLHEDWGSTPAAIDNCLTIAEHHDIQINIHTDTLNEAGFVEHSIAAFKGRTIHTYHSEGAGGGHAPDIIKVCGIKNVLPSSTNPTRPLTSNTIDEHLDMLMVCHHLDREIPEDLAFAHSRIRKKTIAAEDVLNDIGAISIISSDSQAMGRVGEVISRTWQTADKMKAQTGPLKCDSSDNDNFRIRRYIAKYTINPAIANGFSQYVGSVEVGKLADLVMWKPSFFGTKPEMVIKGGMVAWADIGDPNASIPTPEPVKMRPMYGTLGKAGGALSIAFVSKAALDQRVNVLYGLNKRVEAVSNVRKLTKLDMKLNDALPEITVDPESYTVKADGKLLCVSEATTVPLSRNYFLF
Conditions: not given
Turning to `Cc1ccc(N2C(=O)c3ccccc3C2C2C(=O)NC(=O)NC2=O)cc1C` (stereo not shown) [5d, 5-(2-(3,4-Dimethylphenyl)-3-oxoisoindolin-1-yl) Barbituric Acid], 1070 ± 20 nM corresponded to half-maximal inhibition (IC50).

In turn, `COc1ccc(N2C(=O)c3ccccc3C2C2C(=O)NC(=S)NC2=O)cc1` (stereo not shown) [5n, 5-(2-(4-Methoxyphenyl)-3-oxoisoindolin-1-yl)-2-thiobarbituric Acid] returned an IC50 of 1340 ± 10 nM. Regarding `O=C1NC(=O)C(C2c3ccccc3C(=O)N2c2cccc(Cl)c2)C(=O)N1` (stereo not shown) [5i, 5-(2-(3-Chlorophenyl)-3-oxoisoindolin-1-yl) Barbituric Acid], half-maximal inhibition (IC50) required 1220 ± 50 nM.

With `Cc1ccc(N2C(=O)c3ccccc3C2C2C(=O)NC(=O)NC2=O)cc1` (stereo not shown) [5g, 5-(3-Oxo-2-(p-tolyl) Isoindolin-1-yl) Barbituric Acid], the half-maximal inhibitory concentration (IC50) came to 1090 ± 70 nM.

Turning to `O=C1NC(=O)C(C2c3ccccc3C(=O)N2c2cc(Cl)cc(Cl)c2)C(=O)N1` (stereo not shown) [5j, 5-(2-(3,5-Dichlorophenyl)-3-oxoisoindolin-1-yl) Barbituric Acid], the IC50 stood at 1780 ± 100 nM. The same measure, in the same setting: under `O=C1NC(=O)C(C2c3ccccc3C(=O)N2c2ccc(F)cc2)C(=O)N1` (stereo not shown) [5h, 5-(2-(4-Fluorophenyl)-3-oxoisoindolin-1-yl) Barbituric Acid] stands 1280 ± 40 nM; under `O=C1NC(=O)C(C2c3ccccc3C(=O)N2c2ccc(Cl)c(Cl)c2)C(=O)N1` (stereo not shown) [5f, 5-(2-(3,4-Dichlorophenyl)-3-oxoisoindolin-1-yl) Barbituric Acid], 960 ± 10 nM. On the same count and under the same terms, in the case of `O=C1NC(=O)C(C2c3ccccc3C(=O)N2c2ccc(Br)cc2)C(=O)N1` (stereo not shown) [5e, 5-(2-(4-Bromophenyl)-3-oxoisoindolin-1-yl) Barbituric Acid] it was 960 ± 10 nM; in that of `CC(C)CN1C(=O)c2ccccc2C1C1C(=O)NC(=O)NC1=O` (stereo not shown) [5k, 5-(2-Isobutyl-3-oxoisoindolin-1-yl) Barbituric Acid], 1620 ± 50 nM; in that of `COc1ccc(N2C(=O)c3ccccc3C2C2C(=O)NC(=O)NC2=O)cc1` (stereo not shown) [5b, 5-(2-(4-Methoxyphenyl)-3-oxoisoindolin-1-yl) Barbituric Acid], 820 ± 30 nM. Still for that read-out and setting: in the case of `O=C1NC(=O)C(C2c3ccccc3C(=O)N2c2ccc(Cl)cc2)C(=O)N1` (stereo not shown) [5c, 5-(2-(4-Chlorophenyl)-3-oxoisoindolin-1-yl) Barbituric Acid] it was 1250 ± 50 nM; in that of `O=C1NC(=O)C(C2c3ccccc3C(=O)N2c2ccccc2)C(=O)N1` (stereo not shown) [5a, 5-(3-Oxo-2-phenylisoindolin-1-yl) Barbituric Acid], 1850 ± 60 nM. In the case of `CC(C)N1C(=O)c2ccccc2C1C1C(=O)NC(=O)NC1=O` (stereo not shown) [5l, 5-(2-Isopropyl-3-oxoisoindolin-1-yl) Barbituric Acid], the IC50 was determined as 1850 ± 60 nM. As for `COc1ccc(N2C(=O)c3ccccc3C2C2C(=O)N(C)C(=O)N(C)C2=O)cc1` (stereo not shown) [5m, 1,3-Dimethyl-5-(2-(4-methoxyphenyl)-3-oxoisoindolin-1-yl) Barbituric Acid], the IC50 stood at 970 ± 10 nM.

The series is the same for the next values; noted with them: read-out: IC50 ± SEM; jack bean urease; triplicate, mean ± SEM.
On to `NC(N)=S` [thiourea, reference compound], for which the IC50 worked out at 22000 ± 1200 nM.

Test system in another series: not listed separately
Description: Solubility in solvents for NMR. The format is physicochemical.
Conditions: not given
Turning to `CN1C(=O)C(C2OC(=O)c3ccccc32)C(=O)N(C)C1=O` (stereo not shown) [3b, 1,3-Dimethyl-5-(3-oxo-1,3-dihydroisobenzofuran-1-yl) Barbituric Acid], the solubility in solvents result is recorded as “soluble in CHCl3”.

The values above are taken from PMC9202281 (ACS Omega, 2022).
